Several values for one entry are separate records, joined by “and”; a condition that tells them apart may be missing. Identical values can stand only once.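 Step 1: Grow cells in 96-well plates. Step 2: Expose to compound for 48 hours at 5 concentrations. Step 3: Interpolate endpoints linearly; if unreached, use highest concentration. GI50: concentration for 50% inhibition of growth. TGI: concentration producing complete growth inhibition.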
How the values were obtained:
Assay in all cases: NCI-60 cell line screen, 48 h
[1] = tested on: A498 renal
[2] = tested on: CAKI-1 renal
[3] = tested on: DLD-1 colon
[4] = tested on: DMS 114 small cell lung
[5] = tested on: DMS 273 small cell lung
[6] = tested on: DU-145 prostate
[7] = tested on: HCT-15 colon
[8] = tested on: HOP-18 NSCLC
[9] = tested on: HS 578T breast
[10] = tested on: HT29 colon
[11] = tested on: K-562 leukemia
[12] = tested on: KM12 colon
[13] = tested on: KM20L2 colon
[14] = tested on: LXFL 529 NSCLC
[15] = tested on: M19-MEL melanoma
[16] = tested on: MCF7 breast
[17] = tested on: MDA-MB-231 breast
[18] = tested on: MDA-MB-435
[19] = tested on: MDA-N
[20] = tested on: NCI-H522 lung
[21] = tested on: NCI/ADR-RES ovarian
[22] = tested on: OVCAR-5 ovarian
[23] = tested on: PC-3 prostate
[24] = tested on: RPMI-8226 leukemia
[25] = tested on: RXF 393 renal
[26] = tested on: SK-MEL-2 melanoma
[27] = tested on: SNB-78 CNS
[28] = tested on: T-47D breast
[29] = tested on: 786-0 renal
[30] = tested on: A549 NSCLC
[31] = tested on: ACHN renal
[32] = tested on: CCRF-CEM leukemia
[33] = tested on: COLO 205 colon
[34] = tested on: EKVX NSCLC
[35] = tested on: HCC-2998 colon
[36] = tested on: HCT-116 colon
[37] = tested on: HL-60(TB) leukemia
[38] = tested on: HOP-62 NSCLC
[39] = tested on: HOP-92 NSCLC
[40] = tested on: IGROV1 ovarian
[41] = tested on: LOX IMVI melanoma
[42] = tested on: M14 melanoma
[43] = tested on: MALME-3M melanoma
[44] = tested on: MOLT-4 leukemia
[45] = tested on: NCI-H226 lung
[46] = tested on: NCI-H23 lung
[47] = tested on: NCI-H460 lung
[48] = tested on: OVCAR-3 ovarian
[49] = tested on: OVCAR-4 ovarian
[50] = tested on: OVCAR-8 ovarian
[51] = tested on: SF-268 CNS
[52] = tested on: SF-295 CNS
[53] = tested on: SF-539 CNS
[54] = tested on: SK-MEL-28 melanoma
[55] = tested on: SK-MEL-5 melanoma
[56] = tested on: SK-OV-3 ovarian
[57] = tested on: SN12C renal
[58] = tested on: SNB-19 CNS
[59] = tested on: SNB-75 CNS
[60] = tested on: SW-620 colon
[61] = tested on: TK-10 renal
[62] = tested on: UACC-257 melanoma
[63] = tested on: UACC-62 melanoma
[64] = tested on: UO-31 renal
[65] = tested on: XF 498 CNS
[66] = tested on: U251 CNS

Compound: COc1ccc2c(c[n+](C)c3c4cc5c(cc4ccc23)OCO5)c1OC
- GI50 [1]: 9.16 µM and 73.7 µM
- TGI [1]: 21.9 µM and > 100 µM
- TGI [2]: 3.63 µM
- TGI [3]: 3.08 µM
- TGI [4]: 4.71 µM
- TGI [5]: 3.72 µM
- TGI [6]: > 100 µM
- TGI [7]: 17.5 µM and > 100 µM
- TGI [8]: 4.04 µM
- TGI [9]: > 100 µM
- GI50 [10]: 1.78 µM and 5.12 µM
- GI50 [11]: 3.8 µM and 34.1 µM
- TGI [11]: > 100 µM
- GI50 [12]: 2.1 µM and 9 µM
- TGI [13]: 3.15 µM
- TGI [14]: 3.35 µM
- TGI [15]: 3.07 µM
- TGI [16]: 79.6 µM
- TGI [17]: > 100 µM
- TGI [18]: 43.8 µM
- TGI [19]: 44.5 µM
- TGI [20]: 3.64 µM
- TGI [21]: > 100 µM
- GI50 [22]: 2.49 µM and 22.8 µM
- TGI [23]: > 100 µM
- TGI [24]: > 100 µM
- TGI [25]: > 100 µM
- TGI [26]: 3.54 µM
- TGI [27]: 4.26 µM
- TGI [28]: > 100 µM

Compound: CCn1c2c(c3ccccc31)C(c1ccccc1)CC1C(=O)N(c3ccccc3)C(=O)C21 (stereo unspecified)
- TGI [29]: > 100 µM
- TGI [1]: 30.6 µM
- TGI [30]: > 100 µM
- TGI [31]: > 100 µM
- TGI [2]: > 100 µM
- TGI [32]: > 100 µM
- TGI [33]: > 100 µM
- TGI [3]: > 100 µM
- TGI [4]: > 100 µM
- TGI [5]: > 100 µM
- TGI [34]: > 100 µM
- TGI [35]: > 100 µM
- TGI [36]: > 100 µM
- TGI [7]: > 100 µM
- TGI [37]: > 100 µM
- TGI [38]: > 100 µM
- TGI [39]: 75.7 µM
- TGI [40]: > 100 µM
- TGI [11]: > 100 µM
- TGI [12]: > 100 µM
- TGI [13]: > 100 µM
- TGI [41]: > 100 µM
- TGI [14]: > 100 µM
- TGI [42]: > 100 µM
- TGI [15]: > 100 µM
- TGI [43]: 52.4 µM
- TGI [44]: > 100 µM
- TGI [45]: > 100 µM
- TGI [46]: > 100 µM
- TGI [47]: > 100 µM
- TGI [20]: > 100 µM
- TGI [48]: > 100 µM
- TGI [49]: > 100 µM
- TGI [22]: > 100 µM
- TGI [50]: > 100 µM
- TGI [51]: > 100 µM
- TGI [52]: > 100 µM
- TGI [53]: > 100 µM
- TGI [26]: > 100 µM
- TGI [54]: > 100 µM
- TGI [55]: > 100 µM
- TGI [56]: > 100 µM
- TGI [57]: > 100 µM
- TGI [58]: > 100 µM
- TGI [59]: 59.6 µM
- TGI [27]: > 100 µM
- TGI [60]: > 100 µM
- TGI [61]: > 100 µM
- TGI [62]: > 100 µM
- TGI [63]: > 100 µM
- TGI [64]: > 100 µM
- TGI [65]: 37.2 µM

Compound: O=C(N/N=C/c1cc(Cl)cc(Cl)c1[O-])c1ccccc1.O=C(N/N=C/c1cc(Cl)cc(Cl)c1[O-])c1ccccc1.[Co+2]
- GI50 [29]: 10.4 µM
- TGI [29]: > 100 µM
- GI50 [1]: 34.4 µM
- TGI [1]: > 100 µM
- GI50 [30]: 28.8 µM
- TGI [30]: > 100 µM
- GI50 [31]: 16.7 µM
- TGI [31]: > 100 µM
- GI50 [2]: 21.7 µM
- TGI [2]: > 100 µM
- GI50 [32]: 3.43 µM
- TGI [32]: 19.6 µM
- GI50 [33]: 42.1 µM
- TGI [33]: > 100 µM
- GI50 [3]: 14.7 µM
- TGI [3]: > 100 µM
- GI50 [4]: 10.6 µM
- TGI [4]: 67.9 µM
- GI50 [34]: 10.3 µM
- TGI [34]: > 100 µM
- GI50 [35]: 40.7 µM
- TGI [35]: > 100 µM
- GI50 [36]: 14.6 µM
- TGI [36]: > 100 µM
- GI50 [7]: 7.22 µM
- TGI [7]: > 100 µM
- GI50 [37]: 2620 nM
- TGI [37]: 8.89 µM
- GI50 [8]: 9.34 µM
- TGI [8]: > 100 µM
- GI50 [38]: 24.8 µM
- TGI [38]: > 100 µM
- GI50 [39]: 5.71 µM
- TGI [39]: 46.9 µM
- GI50 [10]: 49.5 µM
- TGI [10]: > 100 µM
- GI50 [40]: 27.8 µM
- TGI [40]: > 100 µM
- GI50 [11]: 15.6 µM
- TGI [11]: 76.7 µM
- GI50 [12]: 27.3 µM
- TGI [12]: > 100 µM
- GI50 [13]: 47.8 µM
- TGI [13]: > 100 µM
- GI50 [41]: 9.19 µM
- TGI [41]: > 100 µM
- GI50 [14]: 7.38 µM
- TGI [14]: > 100 µM
- GI50 [42]: 17.8 µM
- TGI [42]: 78.3 µM
- GI50 [15]: 20.5 µM
- TGI [15]: > 100 µM
- GI50 [43]: 33 µM
- TGI [43]: > 100 µM
- GI50 [44]: 4.43 µM
- TGI [44]: 21.4 µM
- GI50 [45]: 26.5 µM
- TGI [45]: 92.2 µM
- GI50 [46]: 21 µM
- TGI [46]: > 100 µM
- GI50 [47]: 16.7 µM
- TGI [47]: > 100 µM
- GI50 [48]: 3.18 µM
- TGI [48]: > 100 µM
- GI50 [49]: 16.1 µM
- TGI [49]: > 100 µM
- GI50 [22]: 46.5 µM
- TGI [22]: > 100 µM
- GI50 [50]: 21.1 µM
- TGI [50]: > 100 µM
- GI50 [24]: 13.4 µM
- TGI [24]: > 100 µM
- GI50 [52]: 20.8 µM
- TGI [52]: 97.6 µM
- GI50 [53]: 20.5 µM
- TGI [53]: 93 µM
- GI50 [26]: 26.5 µM
- TGI [26]: > 100 µM
- GI50 [55]: 29 µM
- TGI [55]: > 100 µM
- GI50 [56]: 40.9 µM
- TGI [56]: > 100 µM
- GI50 [57]: 14.8 µM
- TGI [57]: > 100 µM
- GI50 [58]: 45 µM
- TGI [58]: > 100 µM
- GI50 [59]: 25.3 µM
- TGI [59]: > 100 µM
- GI50 [27]: 53.2 µM
- TGI [27]: > 100 µM
- GI50 [60]: 24.9 µM
- TGI [60]: > 100 µM
- GI50 [61]: 41 µM
- TGI [61]: > 100 µM
- GI50 [66]: 33.5 µM
- TGI [66]: > 100 µM
- GI50 [62]: 19.6 µM
- TGI [62]: 76.3 µM
- GI50 [63]: 12.2 µM
- TGI [63]: 51.6 µM
- GI50 [64]: 16.8 µM
- TGI [64]: 73.3 µM
- GI50 [65]: 12.4 µM
- TGI [65]: > 100 µM

Source: PubChem BioAssay (NCI)
